Laboratory results: patent US4258180A, “C6-Modified cyclodextrin sulfate salts as complement inhibitors” (American Cyanamid Company, priority 1979, dated 1981)
Counter-ions that a name gives are not always drawn.

Key:
Type in all cases: biochemical
activated human C1 = activated human C1 (Homo sapiens, UniProt P09871); test: Test Code 026 (C1 inhibitor); conditions: serial dilution assay, twofold dilutions; higher well number indicates higher activity
From the text: (§1) An active inhibitor protects C2 from C1 and C4; (ii) Test Code 035 (C3-C9 inhibitor)--This test determines the ability of the late components of human complement (C3-C9) to lyse EAC 142 in the presence of appropriate dilutions of the test compound. An active inhibitor protects EAC 142 from lysis by human C3-C9; (iii) Test Code 036 (C-Shunt inhibitor)--In this test human erythrocytes rendered fragile are lysed in autologous serum via the shunt pathway activated by cobra venom factor in the presence of appropriate dilutions of the test compound. Inhibition of the shunt pathway results in failure of lysis; (iv) Forssman Vasculitis Test--Here, the well known complement dependent lesion, Forssman Vasculitis, is produced in guinea pigs by intradermal injection of rabbit anti-Forssman antiserum. The lesion is measured in terms of diameter, edema and hemorrhage and the extent to which a combined index of these is inhibited by prior intraperitoneal injection of the test compound at 200 mg/kg is then reported, unless otherwise stated; (v) Forssman Shock Test--Lethal shock is produced in guinea pigs by an i.v. injection of anti-Forssman antiserum and the harmonic mean death time of treated guinea pigs is compared with that of simultaneous controls; (vi) Complement Level Reduction Test--In this test, the above dosed guinea pigs, or others, are bled for serum and the complement level is determined in undiluted serum by the capillary tube method of U.S. Pat. No. 3,876,376 and compared to undosed control guinea pigs; and (vii) Cap 50 Test--Here, appropriate amounts of the test compound are added to a pool of guinea pig serum in vitro, after which the undiluted serum capillary tube assay referred to above is run. The concentration of compound inhibiting 50% is reported.

[1] = test system: late components of human complement (C3-C9); test: Test Code 035 (C3-C9 inhibitor), lysis of EAC 142; conditions: serial dilution assay, twofold dilutions; higher well number indicates higher activity; N = Negative
From the text: as §1

shunt pathway = test: Test Code 036 (C-Shunt inhibitor), lysis of fragile human erythrocytes in autologous serum, cobra venom factor; conditions: serial dilution assay, twofold dilutions; higher well number indicates higher activity; N = Negative
From the text: as §1

[N-]=[N+]=NC[C@H]1O[C@@H]2O[C@H]3[C@H](OS(=O)(=O)O)[C@@H](OS(=O)(=O)O)[C@@H](O[C@H]4[C@H](OS(=O)(=O)O)[C@@H](OS(=O)(=O)O)[C@@H](O[C@H]5[C@H](OS(=O)(=O)O)[C@@H](OS(=O)(=O)O)[C@@H](O[C@H]6[C@H](OS(=O)(=O)O)[C@@H](OS(=O)(=O)O)[C@@H](O[C@H]7[C@H](OS(=O)(=O)O)[C@@H](OS(=O)(=O)O)[C@@H](O[C@H]8[C@H](OS(=O)(=O)O)[C@@H](OS(=O)(=O)O)[C@@H](O[C@H]1[C@H](OS(=O)(=O)O)[C@H]2OS(=O)(=O)O)O[C@@H]8CN=[N+]=[N-])O[C@@H]7CN=[N+]=[N-])O[C@@H]6CN=[N+]=[N-])O[C@@H]5CN=[N+]=[N-])O[C@@H]4CN=[N+]=[N-])O[C@@H]3CN=[N+]=[N-] [β-Cyclo[6-azido-6-deoxy]dextrin poly(H-sulfate)poly-trimethy] [6,6',6",6'",6"",6'"",6"""-Heptaazido-6,6',6",6'",6"",6'"",6"""-heptadeoxy-β-cyclodextrin, tetradecakis(H-sulfate), tetradecasalt with trimethylamine] was tested, and the “026 Activity in wells” value (activated human C1) was 2 wells, the “035 Activity in wells” value [1] was “N” and the “036 Activity in wells” value (shunt pathway) was “N”.

N#CSC[C@H]1O[C@@H]2O[C@H]3[C@H](OS(=O)(=O)O)[C@@H](OS(=O)(=O)O)[C@@H](O[C@H]4[C@H](OS(=O)(=O)O)[C@@H](OS(=O)(=O)O)[C@@H](O[C@H]5[C@H](OS(=O)(=O)O)[C@@H](OS(=O)(=O)O)[C@@H](O[C@H]6[C@H](OS(=O)(=O)O)[C@@H](OS(=O)(=O)O)[C@@H](O[C@H]7[C@H](OS(=O)(=O)O)[C@@H](OS(=O)(=O)O)[C@@H](O[C@H]8[C@H](OS(=O)(=O)O)[C@@H](OS(=O)(=O)O)[C@@H](O[C@H]1[C@H](OS(=O)(=O)O)[C@H]2OS(=O)(=O)O)O[C@@H]8CSC#N)O[C@@H]7CSC#N)O[C@@H]6CSC#N)O[C@@H]5CSC#N)O[C@@H]4CSC#N)O[C@@H]3CSC#N [β-Cyclo[6-deoxy-6-thiocyanato]dextrin poly(H-sulfate)poly-tr] [6,6',6",6'",6"",6'"",6"""-Heptadeoxy-6,6',6",6'",6"",6'"",6""-heptathiocyanato-β-cyclodextrin, tetradecakis(H-sulfte), tetradecasalt with trimethylamine] was tested, and the “026 Activity in wells” value (activated human C1) was 4 wells, the “035 Activity in wells” value [1] was “N” and the “036 Activity in wells” value (shunt pathway) was 1 wells.

In the case of C[C@H]1O[C@@H]2O[C@H]3[C@H](OS(=O)(=O)O)[C@@H](OS(=O)(=O)O)[C@@H](O[C@H]4[C@H](OS(=O)(=O)O)[C@@H](OS(=O)(=O)O)[C@@H](O[C@H]5[C@H](OS(=O)(=O)O)[C@@H](OS(=O)(=O)O)[C@@H](O[C@H]6[C@H](OS(=O)(=O)O)[C@@H](OS(=O)(=O)O)[C@@H](O[C@H]7[C@H](OS(=O)(=O)O)[C@@H](OS(=O)(=O)O)[C@@H](O[C@H]1[C@H](OS(=O)(=O)O)[C@H]2OS(=O)(=O)O)O[C@@H]7C)O[C@@H]6C)O[C@@H]5C)O[C@@H]4C)O[C@@H]3C [α-Cyclo[6-deoxy]dextrin poly(H-sulfate)poly-trimethylamine s] [6,6',6",6'",6"",6'""-Hexadeoxy-α-cyclodextrin, dodecakis(H-sulfate), dodecasalt with trimethylamine], the “026 Activity in wells” value (activated human C1) is reported as 7 wells, the “035 Activity in wells” value [1] is reported as “N” and the “036 Activity in wells” value (shunt pathway) is reported as 3 wells.

[N-]=[N+]=NC[C@H]1O[C@@H]2O[C@H]3[C@H](OS(=O)(=O)O)[C@@H](OS(=O)(=O)O)[C@@H](O[C@H]4[C@H](OS(=O)(=O)O)[C@@H](OS(=O)(=O)O)[C@@H](O[C@H]5[C@H](OS(=O)(=O)O)[C@@H](OS(=O)(=O)O)[C@@H](O[C@H]6[C@H](OS(=O)(=O)O)[C@@H](OS(=O)(=O)O)[C@@H](O[C@H]7[C@H](OS(=O)(=O)O)[C@@H](OS(=O)(=O)O)[C@@H](O[C@H]8[C@H](OS(=O)(=O)O)[C@@H](OS(=O)(=O)O)[C@@H](O[C@H]1[C@H](OS(=O)(=O)O)[C@H]2OS(=O)(=O)O)O[C@@H]8CN=[N+]=[N-])O[C@@H]7CN=[N+]=[N-])O[C@@H]6CN=[N+]=[N-])O[C@@H]5CN=[N+]=[N-])O[C@@H]4CN=[N+]=[N-])O[C@@H]3CN=[N+]=[N-] [β-Cyclo[6-azido-6-deoxy]dextrin poly(H-sulfate)poly-sodium s] [6,6',6",6'",6"",6'"",6"""-Heptaazido-6,6',6",6'",6"",6'"",6"""-heptadeoxy-β-cyclodextrin, tetradecakis(H-sulfate), tetradecasoium salt] was tested, and the “026 Activity in wells” value (activated human C1) was 6 wells, the “035 Activity in wells” value [1] was 2 wells and the “036 Activity in wells” value (shunt pathway) was 4 wells.

For N#CSC[C@H]1O[C@@H]2O[C@H]3[C@H](OS(=O)(=O)O)[C@@H](OS(=O)(=O)O)[C@@H](O[C@H]4[C@H](OS(=O)(=O)O)[C@@H](OS(=O)(=O)O)[C@@H](O[C@H]5[C@H](OS(=O)(=O)O)[C@@H](OS(=O)(=O)O)[C@@H](O[C@H]6[C@H](OS(=O)(=O)O)[C@@H](OS(=O)(=O)O)[C@@H](O[C@H]7[C@H](OS(=O)(=O)O)[C@@H](OS(=O)(=O)O)[C@@H](O[C@H]8[C@H](OS(=O)(=O)O)[C@@H](OS(=O)(=O)O)[C@@H](O[C@H]1[C@H](OS(=O)(=O)O)[C@H]2OS(=O)(=O)O)O[C@@H]8CSC#N)O[C@@H]7CSC#N)O[C@@H]6CSC#N)O[C@@H]5CSC#N)O[C@@H]4CSC#N)O[C@@H]3CSC#N [β-Cyclo[6-deoxy-6-thiocyanato]dextrin poly(H-sulfate)poly-so] [6,6',6",6'",6"",6'"",6"""-Heptadeoxy-6,6',6",6'",6"",6'"",6"""-heptathiocyanato-β-cyclodextrin, tetradecakis(H-sulfate), tetradecasodium salt], the “026 Activity in wells” value (activated human C1) was 7 wells, the “035 Activity in wells” value [1] was 2 wells and the “036 Activity in wells” value (shunt pathway) was 4 wells.

For O=S(=O)(O)O[C@@H]1[C@@H](OS(=O)(=O)O)[C@H]2O[C@H]3[C@H](OS(=O)(=O)O)[C@@H](OS(=O)(=O)O)[C@@H](O[C@H]4[C@H](OS(=O)(=O)O)[C@@H](OS(=O)(=O)O)[C@@H](O[C@H]5[C@H](OS(=O)(=O)O)[C@@H](OS(=O)(=O)O)[C@@H](O[C@H]6[C@H](OS(=O)(=O)O)[C@@H](OS(=O)(=O)O)[C@@H](O[C@H]7[C@H](OS(=O)(=O)O)[C@@H](OS(=O)(=O)O)[C@@H](O[C@@H]1[C@@H](CBr)O2)O[C@@H]7CBr)O[C@@H]6CBr)O[C@@H]5CBr)O[C@@H]4CBr)O[C@@H]3CBr [α-Cyclo[6-bromo-6-deoxy]dextrin poly(H-sulfate)poly-trimethy] [α-Cyclo[6-bromo-6-deoxy]dextrin poly(H-sulfate)poly-trimethylamine salt], the “026 Activity in wells” value (activated human C1) was 2 wells, the “035 Activity in wells” value [1] was 2 wells and the “036 Activity in wells” value (shunt pathway) was “N”.

With N#CSC[C@H]1O[C@@H]2O[C@H]3[C@H](OS(=O)(=O)O)[C@@H](OS(=O)(=O)O)[C@@H](O[C@H]4[C@H](OS(=O)(=O)O)[C@@H](OS(=O)(=O)O)[C@@H](O[C@H]5[C@H](OS(=O)(=O)O)[C@@H](OS(=O)(=O)O)[C@@H](O[C@H]6[C@H](OS(=O)(=O)O)[C@@H](OS(=O)(=O)O)[C@@H](O[C@H]7[C@H](OS(=O)(=O)O)[C@@H](OS(=O)(=O)O)[C@@H](O[C@H]1[C@H](OS(=O)(=O)O)[C@H]2OS(=O)(=O)O)O[C@@H]7CSC#N)O[C@@H]6CSC#N)O[C@@H]5CSC#N)O[C@@H]4CSC#N)O[C@@H]3CSC#N [α-Cyclo[6-deoxy-6-thiocyanato]dextrin poly(H-sulfate)poly-so] [6,6',6",6'",6"",6'""-Hexadeoxy-6,6',6",6'",6"",6'""-hexathiocyanato-α-cyclodextrin, dodecakis(H-sulfate), dodecasodium salt] the “026 Activity in wells” value (activated human C1) was 7 wells, the “035 Activity in wells” value [1] was 2 wells and the “036 Activity in wells” value (shunt pathway) was 4 wells.
